According to patent US5011839A, “3(2H)pyridazinones for antagonistic agent against srs-a” (Nissan Chemical Industries Ltd., priority 1988, dated 1991):

Tested on: LTD4 (contractile responses of guinea-pig trachea)
Assay: LTD4 antagonism in guinea-pig trachea (in vitro test, isolated tracheal spiral strip)
Type: cell-based
Settings: Cavia porcellus, 0.5 h; test compound concentration 10^6 g/ml [sic], added 30 min prior to LTD4; isolated male guinea-pig trachea; vs paired control
Protocol: LTD4 antagonism in guinea-pig trachea
Antagonism for LTD4 was determined in isolated male guinea-pig (300-400 g) trachea prepared as spiral strip. Tracheal preparations were suspended under 1 g tension in 10 ml organ baths containing 5 μM of indomethacin and they were incubated for 1 hour prior to used. Contractile responses to LTD4 (2×10^8 g/ml) were obtained after the maximal response to histamine (10^4 M). Test compounds dissolved in 100% dimethyl sulfoxide were added to the organ baths (final concentration of 10^6 g/ml) 30 min prior to LTD4 addition, and then contractile responses to LTD4 were compared with those of control which was obtained from a paired trachea in the absence of test compounds. LTD-induced contractions were expressed as a percentage of the maximal response to histamine. The antagonism was determined as follows:
Antagonism (%)=(1.0-% contraction in test/% contraction in […]

Row | SMILES | inhibition at 1 µg/mL
1 | CCn1ncc(NCc2cccc3ccccc23)c(Br)c1=O [compound 23] | 57%
2 | CCn1nc(OC)c(NCc2ccc(OC)c3ccccc23)c(Cl)c1=O [compound 38] | 43%
3 | COc1ccc(CNc2c(OC(C)C)n[nH]c(=O)c2Cl)c2ccccc12 [Compound No. 32, 4-Chloro-5-(4-methoxy-1-naphthylmethylamino)-6-i-propoxy-3(2H)pyridazinone] | 50%
4 | COc1ccc(CNc2c(Cl)n[nH]c(=O)c2Cl)c2ccccc12 [Compound No. 34, 4,6-Dichloro-5-(4-methoxy-1-naphthylmethylamino)-3(2H)pyridazinone] | 99%
5 | CCOc1n[nH]c(=O)c(Cl)c1NCc1ccc(OC)c2ccccc12 [Compound No. 31] | 95%
6 | CCn1ncc(NCc2ccco2)c(Br)c1=O [Compound No. 22, 2Ethyl-4-bromo-5-(2-furanylmethylamino)-3(2H)pyridazinone] | 39%
7 | CCn1ncc(NCc2c(OC)ccc3ccccc23)c(Br)c1=O [compound 25] | 50%
8 | COc1ccc(CNc2c([N+](=O)[O-])n[nH]c(=O)c2Cl)c2ccccc12 [Compound No. 30, 4-Chloro-5-(4-methoxy-1-naphthylmethylamino)-6-nitro-3(2H)pyridazinone] | 50%
9 | COc1ccc(CNc2cn[nH]c(=O)c2Br)c2ccccc12 [Compound No. 16] | 74%
10 | CCCCOc1n[nH]c(=O)c(Cl)c1NCc1ccc(Cl)nc1 [compound 57] | 69%
11 | CCCCCCOc1n[nH]c(=O)c(Cl)c1NCc1cccnc1 [compound 60] | 96%
12 | COc1ccc(CNc2cn[nH]c(=O)c2Cl)c2ccccc12 [Compound No. 5, 4-Chloro-5-(4-methoxy-1-naphthylmethylamino)-3(2H)pyridazinone] | 79%
13 | CCCc1c(OCC(O)COc2ccc3c(=O)cc(C(=O)O)oc3c2CCC)ccc(C(C)=O)c1O (centres unmarked) [FPL-55712, reference compound] | 94%
14 | CCn1ncc(NCc2ccc3ccccc3c2)c(Br)c1=O [compound 24] | 67%
